Where two headings read alike, the source gives them in different places.
Key:
MOLT-4 = experiment: Cell viability assay (MTS) in MOLT-4 cells; assay type: cell-based; conditions: Homo sapiens, MOLT-4
Description: (§1) Acute lymphoblastic leukemia cells (MOLT-4 and RS4; 11) were incubated with increasing concentrations of Bcl-xL degraders for 48 h. Cell viability was measured by tetrazolium-based MTS assay.

RS4; 11 = experiment: Cell viability assay (MTS) in RS4; 11 cells; assay type: cell-based; parameters: Anti-Cancer Activity IC50 (48 hr) RS4; 11: scale not given here; conditions: for IC50: Homo sapiens, RS4-11
Description: as §1

[1] = Table 2, 48 hr, MTS, read-out: Anti-Cancer Activity IC50 (48 hr) MOLT-4
[2] = Table 2, 48 hr, MTS, read-out: Anti-Cancer Activity IC50 (48 hr) RS4, 11

Compound | IC50 (MOLT-4; [1]) | IC50 (RS4; 11; [2]) | further results
Cc1ncsc1-c1ccc([C@H](C)NC(=O)[C@@H]2C[C@@H](O)CN2C(=O)[C@@H](NC(=O)CCCCCCC(=O)N2CCN(C[C@]3(C)CCC(c4ccc(Cl)cc4)=C(CN4CCN(c5ccc(C(=O)NS(=O)(=O)c6ccc(N[C@H](CCN7CCCOCC7)CSc7ccccc7)c([N+](=O)[O-])c6)cc5)CC4)C3)CC2)C(C)(C)C)cc1 [Compound 55, (2S,4R)-1-((S)-2-(8-(4-(((R)-6-((4-(4-(((4-(((R)-4-(1,4-oxazepan-4-yl)-1-(phenylthio)butan-2-yl)amino)-3-nitrophenyl)sulfonyl)carbamoyl)phenyl)piperazin-1-yl)methyl)-4′-chloro-4-methyl-2,3,4,5-tetrahydro-[1,1′-biphenyl]-4-yl)methyl)piperazin-1-yl)-8-oxooctanamido)-3,3-dimethylbutanoyl)-4-hydroxy-N—((S)-1-(4-(4-methylthiazol-5-yl)phenyl)ethyl)pyrrolidine-2-carboxamide] | < 20 nM | < 20 nM | IC50 (MOLT-4; Table 4, 48 h, read-out: MOLT-4 48 h IC50): 11 nM; IC50 (RS4; 11; Table 4, 48 h, read-out: RS4 48 h IC50): 3.2 nM
Cc1ncsc1-c1ccc([C@H](C)NC(=O)[C@@H]2C[C@@H](O)CN2C(=O)[C@@H](NC(=O)CCCCCCCNC(=O)c2ccc(N3CCN(C[C@]4(C)CCC(c5ccc(Cl)cc5)=C(CN5CCN(c6ccc(C(=O)NS(=O)(=O)c7ccc(N[C@H](CCN8C[C@H]9C[C@@H]8CO9)CSc8ccccc8)c(S(=O)(=O)C(F)(F)F)c7)cc6)CC5)C4)CC3)nc2)C(C)(C)C)cc1 [Compound 74] | < 20 nM | 20 to 100 nM | –
Cc1ncsc1-c1ccc([C@H](C)NC(=O)[C@@H]2C[C@@H](O)CN2C(=O)[C@@H](NC(=O)CNC(=O)c2ccc(N3CCN(CC4(C)CCC(c5ccc(Cl)cc5)=C(CN5CCN(c6ccc(C(=O)NS(=O)(=O)c7ccc(N[C@H](CCN8CCOCC8)CSc8ccccc8)c(S(=O)(=O)C(F)(F)F)c7)cc6)CC5)C4)CC3)nc2)C(C)(C)C)cc1 (some centres unmarked) [Compound 1] | 20 to 100 nM | 100 to 500 nM | –
Cc1ncsc1-c1ccc([C@H](C)NC(=O)[C@@H]2C[C@@H](O)CN2C(=O)[C@@H](NC(=O)CCCCCNC(=O)c2ccc(CN3CCN(C[C@]4(C)CCC(c5ccc(Cl)cc5)=C(CN5CCN(c6ccc(C(=O)NS(=O)(=O)c7ccc(N[C@H](CCN8CCCOCC8)CSc8ccccc8)c(S(=O)(=O)C(F)(F)F)c7)cc6)CC5)C4)CC3)nc2)C(C)(C)C)cc1 [Compound 80] | < 20 nM | < 20 nM | –
Cc1ncsc1-c1ccc([C@H](C)NC(=O)[C@@H]2C[C@@H](O)CN2C(=O)[C@@H](NC(=O)CCCCCCC(=O)N2CCN(CC3(C)CCC(c4ccc(Cl)cc4)=C(CN4CCN(c5ccc(C(=O)NS(=O)(=O)c6ccc(N[C@H](CCN7CCOCC7)CSc7ccccc7)c([N+](=O)[O-])c6)cc5)CC4)C3)CC2)C(C)(C)C)cc1 (stereo partly drawn) [Compound 33, (2S,4R)-1-((2S)-2-(8-(4-((4′-chloro-4-methyl-6-((4-(4-(((4-(((R)-4-morpholino-1-(phenylthio)butan-2-yl)amino)-3-nitrophenyl)sulfonyl)carbamoyl)phenyl)piperazin-1-yl)methyl)-2,3,4,5-tetrahydro-[1,1′-biphenyl]-4-yl)methyl)piperazin-1-yl)-8-oxooctanamido)-3,3-dimethylbutanoyl)-4-hydroxy-N—((S)-1-(4-(4-methylthiazol-5-yl)phenyl)ethyl)pyrrolidine-2-carboxamide] | 20 to 100 nM | < 20 nM | –
Cc1ncsc1-c1ccc([C@H](C)NC(=O)[C@@H]2C[C@@H](O)CN2C(=O)[C@@H](NC(=O)CCCCCCCC(=O)N2CCN(CCC3(C)CCC(c4ccc(Cl)cc4)=C(CN4CCN(c5ccc(C(=O)NS(=O)(=O)c6ccc(N[C@H](CCN7CCOCC7)CSc7ccccc7)c(S(=O)(=O)C(F)(F)F)c6)cc5)CC4)C3)CC2)C(C)(C)C)cc1 (stereo partly drawn) [Compound 29, (2S,4R)-1-((2S)-2-(9-(4-(2-(4′-chloro-4-methyl-6-((4-(4-(((4-(((R)-4-morpholino-1-(phenylthio)butan-2-yl)amino)-3-((trifluoromethyl)sulfonyl)phenyl)sulfonyl)carbamoyl)phenyl)piperazin-1-yl)methyl)-2,3,4,5-tetrahydro-[1,1′-biphenyl]-4-yl)ethyl)piperazin-1-yl)-9-oxononanamido)-3,3-dimethylbutanoyl)-4-hydroxy-N—((S)-1-(4-(4-methylthiazol-5-yl)phenyl)ethyl)pyrrolidine-2-carboxamide] | 100 to 500 nM | 20 to 100 nM | –
Cc1ncsc1-c1ccc([C@H](C)NC(=O)[C@@H]2C[C@@H](O)CN2C(=O)[C@@H](NC(=O)CNC(=O)c2ccc(N3CCN(CCN(C)CC4(C)CCC(c5ccc(Cl)cc5)=C(CN5CCN(c6ccc(C(=O)NS(=O)(=O)c7ccc(N[C@H](CCN8CCOCC8)CSc8ccccc8)c(S(=O)(=O)C(F)(F)F)c7)cc6)CC5)C4)CC3)nc2)C(C)(C)C)cc1 (some centres unmarked) [Compound 7] | 100 to 500 nM | 20 to 100 nM | –
Cc1ncsc1-c1ccc([C@H](C)NC(=O)[C@@H]2C[C@@H](O)CN2C(=O)[C@@H](NC(=O)CCCCCCC(=O)N2CCN(CC3(C)CCC(c4ccc(Cl)cc4)=C(CN4CCN(c5ccc(C(=O)NS(=O)(=O)c6ccc(N[C@H](CCN7CCCCC7CO)CSc7ccccc7)c([N+](=O)[O-])c6)cc5)CC4)C3)CC2)C(C)(C)C)cc1 (stereo partly drawn) [Compound 45, (2S,4R)-1-((2S)-2-(8-(4-((4′-chloro-6-((4-(4-(((4-(((2R)-4-(2-(hydroxymethyl)piperidin-1-yl)-1-(phenylthio)butan-2-yl)amino)-3-nitrophenyl)sulfonyl)carbamoyl)phenyl)piperazin-1-yl)methyl)-4-methyl-2,3,4,5-tetrahydro-[1,1′-biphenyl]-4-yl)methyl)piperazin-1-yl)-8-oxooctanamido)-3,3-dimethylbutanoyl)-4-hydroxy-N—((S)-1-(4-(4-methylthiazol-5-yl)phenyl)ethyl)pyrrolidine-2-carboxamide] | 100 to 500 nM | 20 to 100 nM | –
Cc1ncsc1-c1ccc([C@H](C)NC(=O)[C@@H]2C[C@@H](O)CN2C(=O)[C@@H](NC(=O)CCCNC(=O)c2ccc(N3CCN(CCN(C)CC4(C)CCC(c5ccc(Cl)cc5)=C(CN5CCN(c6ccc(C(=O)NS(=O)(=O)c7ccc(N[C@H](CCN8CCOCC8)CSc8ccccc8)c(S(=O)(=O)C(F)(F)F)c7)cc6)CC5)C4)CC3)nc2)C(C)(C)C)cc1 (some centres unmarked) [Compound 8] | 20 to 100 nM | 20 to 100 nM | –
Cc1ncsc1-c1ccc([C@H](C)NC(=O)[C@@H]2C[C@@H](O)CN2C(=O)[C@@H](NC(=O)CCCCCCC(=O)N2CCN(CC3(C)CCC(c4ccc(Cl)cc4)=C(CN4CCN(c5ccc(C(=O)NS(=O)(=O)c6ccc(N[C@H](CCN(C)C7CC7)CSc7ccccc7)c([N+](=O)[O-])c6)cc5)CC4)C3)CC2)C(C)(C)C)cc1 (stereo partly drawn) [Compound 35, (2S,4R)-1-((2S)-2-(8-(4-((4′-chloro-6-((4-(4-(((4-(((R)-4-(cyclopropyl(methyl)amino)-1-(phenylthio)butan-2-yl)amino)-3-nitrophenyl)sulfonyl)carbamoyl)phenyl)piperazin-1-yl)methyl)-4-methyl-2,3,4,5-tetrahydro-[1,1′-biphenyl]-4-yl)methyl)piperazin-1-yl)-8-oxooctanamido)-3,3-dimethylbutanoyl)-4-hydroxy-N—((S)-1-(4-(4-methylthiazol-5-yl)phenyl)ethyl)pyrrolidine-2-carboxamide] | 20 to 100 nM | – | Anti-Cancer Activity IC50 (48 hr) RS4; 11 (RS4; 11; Table 2, 48 hr, MTS): + ++
Cc1ncsc1-c1ccc([C@H](C)NC(=O)[C@@H]2C[C@@H](O)CN2C(=O)[C@@H](NC(=O)CCCCS(=O)(=O)N2CCN(C[C@]3(C)CCC(c4ccc(Cl)cc4)=C(CN4CCN(c5ccc(C(=O)NS(=O)(=O)c6ccc(N[C@H](CCN7CCCOCC7)CSc7ccccc7)c(S(=O)(=O)C(F)(F)F)c6)cc5)CC4)C3)CC2)C(C)(C)C)cc1 [Compound 110] | – | – | IC50 (MOLT-4; Table 2A, 48 hr, MTS, read-out: Anti-Cancer Activity IC50 (48 hr) MOLT-4): 20 to 100 nM; IC50 (RS4; 11; Table 2A, 48 hr, MTS, read-out: Anti-Cancer Activity IC50 (48 hr) RS4, 11): < 20 nM
Cc1ncsc1-c1ccc([C@H](C)NC(=O)[C@@H]2C[C@@H](O)CN2C(=O)[C@@H](NC(=O)CCCCCNC(=O)c2ccc(N3CCN(C[C@]4(C)CCC(c5ccc(Cl)cc5)=C(CN5CCN(c6ccc(C(=O)NS(=O)(=O)c7ccc(N[C@H](CCN8CCCOCC8)CSc8ccccc8)c(S(=O)(=O)C(F)(F)F)c7)cc6)CC5)C4)CC3)nn2)C(C)(C)C)cc1 [Compound 79] | < 20 nM | < 20 nM | –
Cc1ncsc1-c1ccc([C@H](C)NC(=O)[C@@H]2C[C@@H](O)CN2C(=O)[C@@H](NC(=O)CCCCCCC(=O)N2CCN(CC3(C)CCC(c4ccc(Cl)cc4)=C(CN4CCN(c5ccc(C(=O)NS(=O)(=O)c6ccc(N[C@H](CCN7C[C@H]8C[C@@H]7CO8)CSc7ccccc7)c([N+](=O)[O-])c6)cc5)CC4)C3)CC2)C(C)(C)C)cc1 (stereo partly drawn) [Compound 52, (2S,4R)-1-((2S)-2-(8-(4-((6-((4-(4-(((4-(((R)-4-((1R,4R)-2-oxa-5-azabicyclo[2.2.1]heptan-5-yl)-1-(phenylthio)butan-2-yl)amino)-3-nitrophenyl)sulfonyl)carbamoyl)phenyl)piperazin-1-yl)methyl)-4′-chloro-4-methyl-2,3,4,5-tetrahydro-[1,1′-biphenyl]-4-yl)methyl)piperazin-1-yl)-8-oxooctanamido)-3,3-dimethylbutanoyl)-4-hydroxy-N—((S)-1-(4-(4-methylthiazol-5-yl)phenyl)ethyl)pyrrolidine-2-carboxamide] | < 20 nM | < 20 nM | IC50 (MOLT-4; Table 5, 48 h, read-out: MOLT-4 48 h IC50): 15.2 nM; IC50 (RS4; 11; Table 5, 48 h, read-out: RS4 48 h IC50): 2.8 nM
Cc1ncsc1-c1ccc([C@H](C)NC(=O)[C@@H]2C[C@@H](O)CN2C(=O)[C@@H](NC(=O)CCCCCCC(=O)N2CCN(C[C@]3(C)CCC(c4ccc(Cl)cc4)=C(CN4CCN(c5ccc(C(=O)NS(=O)(=O)c6ccc(N[C@H](CCN7C[C@H]8COC[C@H]8C7)CSc7ccccc7)c(S(=O)(=O)C(F)(F)F)c6)cc5)CC4)C3)CC2)C(C)(C)C)cc1 [Compound 95] | < 20 nM | < 20 nM | –

Reference: patent US20250154141A1 (University of Florida Research Foundation, Incorporated, priority 2021, published 2025)
